Experimental data: patent US20060069132A1, “Azolecarboxamide herbicides” (priority 2004, published 2006)

Experiments:
[1] = test system: cocklebur; test: Test B pre-/postemergence herbicide test; assay type: in vivo, Xanthium strumarium; conditions: for Cocklebur plant response rating (0 to 100 scale) / Plant response rating, Cocklebur: 0 = no effect, 100 = complete control, preemergence; for Plant response rating, Cocklebur / Cocklebur plant response rating: visual rating; for Cocklebur plant response rating: postemergence, scale 0 (no effect) to 100 (complete control)
Outline: (§1)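 Herbicidal effect was judged by eye on a 0–100 scale after plants stood 13 to 15 days in the greenhouse following pre- or postemergence treatment with surfactant-containing formulations.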

[2] = test system: small flower umbrella sedge; test: Test B flooded paddy test; assay type: in vivo, Cyperus difformis; conditions: 1000 g ai/ha, scale 0 to 100 (0 no effect, 100 complete control)
Outline: (§2)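 Treated at 2-leaf (paddy) or 1–4-leaf, 2–18 cm (postemergence); greenhouse 13–15 d; visual score vs control, 0 none to 100 complete control; dash = not tested.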

[3] = test system: morningglory; test: Test B pre-/postemergence herbicide test; assay type: in vivo, Ipomoea coccinea; conditions: for Morningglory plant response rating (0 to 100 scale) / Plant response rating, Morningglory: 0 = no effect, 100 = complete control, preemergence; for Morningglory plant response rating: postemergence
Outline: as §1

[4] = test system: corn; test: Test B pre-/postemergence herbicide test; assay type: in vivo, Zea mays; conditions: for Corn plant response rating (0 to 100 scale) / Plant response rating, Corn: 0 = no effect, 100 = complete control, preemergence; for Corn plant response rating: postemergence
Outline: (§3)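 Evaluation is visual, comparing treated with control plants on a scale where 0 means no effect and 100 means full control. Treatments were preemergence, or postemergence on seedlings 2–18 cm tall, and held 13–15 days in the greenhouse.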

[5] = test system: blackgrass; test: Test B postemergence herbicide test; assay type: in vivo, Alopecurus myosuroides; conditions: postemergence, visual rating, scale 0 (no effect) to 100 (complete control)
Outline: as §2

[6] = test system: ducksalad; test: Test B flooded paddy test; assay type: in vivo, Heteranthera limosa; conditions: 1000 g ai/ha, scale 0 to 100 (0 no effect, 100 complete control)
Outline: as §2

[7] = test system: velvetleaf; test: Test B pre-/postemergence herbicide test; assay type: in vivo, Abutilon theophrasti; conditions: for Velvetleaf plant response rating (0 to 100 scale) / Plant response rating, Velvetleaf: 0 = no effect, 100 = complete control, preemergence; for Velvetleaf plant response rating: postemergence
Outline: as §3

[8] = test system: barnyardgrass; test: Test B flooded paddy test; assay type: in vivo, Echinochloa crus-galli; conditions: 1000 g ai/ha, scale 0 to 100 (0 no effect, 100 complete control)
Outline: as §2

[9] = test system: lambsquarters; test: Test B pre-/postemergence herbicide test; assay type: in vivo, Chenopodium album; conditions: for Lambsquarters plant response rating: postemergence
Outline: as §3

[10] = test system: giant foxtail; test: Test B pre-/postemergence herbicide test; assay type: in vivo, Setaria faberi; conditions: for Foxtail, Giant plant response rating (0 to 100 scale) / Plant response rating, Foxtail, Giant: 0 = no effect, 100 = complete control, preemergence; for Foxtail, Giant plant response rating: postemergence
Outline: as §3

[11] = test system: wheat; test: Test B postemergence herbicide test; assay type: in vivo, Triticum aestivum; design: key to Wheat plant response rating: 0 = no effect, 100 = complete control; conditions: postemergence
Outline: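 Visual ratings, 0 (no effect) to 100 (complete control), made versus controls after 13–15 d greenhouse. Paddy plants treated at 2-leaf stage; postemergence plants at 1- to 4-leaf stage, 2–18 cm tall.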

[12] = test system: rice; test: Test B flooded paddy test; assay type: in vivo, Oryza sativa; conditions: 1000 g ai/ha, scale 0 to 100 (0 no effect, 100 complete control)
Outline: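 Each value is a visual 0–100 response rating taken against controls 13 to 15 days after treatment in the greenhouse. Plants received formulated chemical postemergence at the 1- to 4-leaf stage or, in flooded paddy, at the 2-leaf stage.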

[13] = test system: barnyardgrass; test: Test B pre-/postemergence herbicide test; assay type: in vivo, Echinochloa crus-galli; conditions: for Barnyardgrass plant response rating (0 to 100 scale) / Plant response rating, Barnyardgrass: 0 = no effect, 100 = complete control, preemergence; for Plant response rating, Barnyardgrass / Barnyardgrass plant response rating: visual rating; for Barnyardgrass plant response rating: postemergence, scale 0 (no effect) to 100 (complete control)
Outline: as §1

[14] = test system: large crabgrass; test: Test B pre-/postemergence herbicide test; assay type: in vivo, Digitaria sanguinalis; conditions: for Crabgrass, Large plant response rating (0 to 100 scale) / Plant response rating, Crabgrass, Large: 0 = no effect, 100 = complete control, preemergence; for Crabgrass, Large plant response rating: postemergence
Outline: as §3

[15] = test system: Surinam grass; test: Test B pre-/postemergence herbicide test; assay type: in vivo, Urochloa decumbens; conditions: for Surinam Grass plant response rating (0 to 100 scale) / Plant response rating, Surinam Grass: 0 = no effect, 100 = complete control, preemergence; for Surinam Grass plant response rating: postemergence
Outline: as §3

[16] = 125 g ai/ha, visual rating, scale 0 (no effect) to 100 (complete control)
[17] = 500 g ai/ha, scale 0 to 100, 0 is no effect, 100 is complete control
[18] = 125 g ai/ha, 0 = no effect, 100 = complete control, preemergence

## CCn1nc(C(C)(C)C)cc1C(=O)Nc1cc(C(=O)N2CCCC2)ccc1F [Compound 242]
[1]; 125 g ai/ha
  Cocklebur plant response rating (0 to 100 scale): 10
  Cocklebur plant response rating: 40
[1]; 500 g ai/ha
  Plant response rating, Cocklebur: 40
  Cocklebur plant response rating: 90
[2]
  Sedge, Umbrella plant response rating: 90
[3]; 125 g ai/ha
  Morningglory plant response rating (0 to 100 scale): 0
[3]; 500 g ai/ha, visual rating
  Plant response rating, Morningglory: 10
[3]; [16]
  Morningglory plant response rating: 20
[3]; [17]
  Morningglory plant response rating: 40
[4]; 125 g ai/ha
  Corn plant response rating (0 to 100 scale): 30
[4]; 500 g ai/ha, visual rating
  Plant response rating, Corn: 60
[4]; [16]
  Corn plant response rating: 10
[4]; [17]
  Corn plant response rating: 40
[5]; 125 g ai/ha
  Blackgrass plant response rating: 10
[5]; 500 g ai/ha
  Blackgrass plant response rating: 20
[6]
  Ducksalad plant response rating: 90
[7]; 125 g ai/ha
  Velvetleaf plant response rating (0 to 100 scale): 50
[7]; 500 g ai/ha, visual rating
  Plant response rating, Velvetleaf: 100
[7]; [16]
  Velvetleaf plant response rating: 50
[7]; [17]
  Velvetleaf plant response rating: 60
[8]
  Barnyardgrass plant response rating: 90
[9]; [18]
  Lambsquarters plant response rating (0 to 100 scale): 100
[9]; 500 g ai/ha, visual rating, 0 = no effect, 100 = complete control, preemergence
  Plant response rating, Lambsquarters: 100
[9]; [16]
  Lambsquarters plant response rating: 90
[9]; [17]
  Lambsquarters plant response rating: 90
[10]; 125 g ai/ha
  Foxtail, Giant plant response rating (0 to 100 scale): 80
[10]; 500 g ai/ha, visual rating
  Plant response rating, Foxtail, Giant: 90
[10]; [16]
  Foxtail, Giant plant response rating: 20
[10]; [17]
  Foxtail, Giant plant response rating: 30
[11]; [16]
  Wheat plant response rating: 10
[11]; [17]
  Wheat plant response rating: 10
[12]
  Rice plant response rating: 90
[13]; 125 g ai/ha
  Barnyardgrass plant response rating (0 to 100 scale): 80
  Barnyardgrass plant response rating: 50
[13]; 500 g ai/ha
  Plant response rating, Barnyardgrass: 100
  Barnyardgrass plant response rating: 60
[14]; 125 g ai/ha
  Crabgrass, Large plant response rating (0 to 100 scale): 90
[14]; 500 g ai/ha, visual rating
  Plant response rating, Crabgrass, Large: 100
[14]; [16]
  Crabgrass, Large plant response rating: 30
[14]; [17]
  Crabgrass, Large plant response rating: 50
[15]; 125 g ai/ha
  Surinam Grass plant response rating (0 to 100 scale): 70
[15]; 500 g ai/ha, visual rating
  Plant response rating, Surinam Grass: 90
[15]; [16]
  Surinam Grass plant response rating: 30
[15]; [17]
  Surinam Grass plant response rating: 60

## CCn1nc(C(C)(C)C)cc1C(=O)Nc1cc(C(=O)OC(C)C)c(F)cc1F [Compound 248]
[1]; 125 g ai/ha
  Cocklebur plant response rating (0 to 100 scale): 0
  Cocklebur plant response rating: 30
[1]; 500 g ai/ha
  Plant response rating, Cocklebur: 0
  Cocklebur plant response rating: 50
[2]
  Sedge, Umbrella plant response rating: 50
[3]; 125 g ai/ha
  Morningglory plant response rating (0 to 100 scale): 0
[3]; 500 g ai/ha, visual rating
  Plant response rating, Morningglory: 0
[3]; [16]
  Morningglory plant response rating: 20
[3]; [17]
  Morningglory plant response rating: 50
[4]; 125 g ai/ha
  Corn plant response rating (0 to 100 scale): 0
[4]; 500 g ai/ha, visual rating
  Plant response rating, Corn: 0
[4]; [16]
  Corn plant response rating: 20
[4]; [17]
  Corn plant response rating: 30
[5]; 125 g ai/ha
  Blackgrass plant response rating: 20
[5]; 500 g ai/ha
  Blackgrass plant response rating: 30
[6]
  Ducksalad plant response rating: 30
[7]; 125 g ai/ha
  Velvetleaf plant response rating (0 to 100 scale): 0
[7]; 500 g ai/ha, visual rating
  Plant response rating, Velvetleaf: 20
[7]; [16]
  Velvetleaf plant response rating: 20
[7]; [17]
  Velvetleaf plant response rating: 30
[8]
  Barnyardgrass plant response rating: 40
[9]; [18]
  Lambsquarters plant response rating (0 to 100 scale): 0
[9]; [16]
  Lambsquarters plant response rating: 60
[9]; [17]
  Lambsquarters plant response rating: 70
[10]; 125 g ai/ha
  Foxtail, Giant plant response rating (0 to 100 scale): 20
[10]; 500 g ai/ha, visual rating
  Plant response rating, Foxtail, Giant: 60
[10]; [16]
  Foxtail, Giant plant response rating: 20
[10]; [17]
  Foxtail, Giant plant response rating: 30
[11]; [16]
  Wheat plant response rating: 30
[11]; [17]
  Wheat plant response rating: 40
[12]
  Rice plant response rating: 50
[13]; 125 g ai/ha
  Barnyardgrass plant response rating (0 to 100 scale): 0
  Barnyardgrass plant response rating: 10
[13]; 500 g ai/ha
  Plant response rating, Barnyardgrass: 20
  Barnyardgrass plant response rating: 40
[14]; 125 g ai/ha
  Crabgrass, Large plant response rating (0 to 100 scale): 20
[14]; 500 g ai/ha, visual rating
  Plant response rating, Crabgrass, Large: 40
[14]; [16]
  Crabgrass, Large plant response rating: 10
[14]; [17]
  Crabgrass, Large plant response rating: 20
[15]; 125 g ai/ha
  Surinam Grass plant response rating (0 to 100 scale): 20
[15]; 500 g ai/ha, visual rating
  Plant response rating, Surinam Grass: 60
[15]; [16]
  Surinam Grass plant response rating: 10
[15]; [17]
  Surinam Grass plant response rating: 20
